# According to publication PMC9312958, “A Novel and Selective Dopamine Transporter Inhibitor, (S)-MK-26, Promotes Hippocampal Synaptic Plasticity and Restores Effort-Related Motivational Dysfunctions” (Biomolecules, 2022):
# pIC50: −log10 of the molar value.
# What was measured:
# hNET = target: T1, hNET (Homo sapiens, UniProt P23975); experiment: Uptake inhibition assay in HEK293 cells expressing hNET; format: cell-based
# T1 construct: expressed in transfected cells
# Protocol: (§1) Human embryonic kidney 293 cells (HEK293 cells) were cultivated in Dulbecco’s Modified Eagle Medium (DMEM), containing 10% heat-inactivated fetal calf serum (FCS; 100 mL/L), streptomycin (100 μg/100 mL) and penicillin ([…]). Geneticin (50 μg/mL) was added to select cells stably expressing the human isoforms of dopamine, norepinephrine and serotonin transporter (hDAT, hNET, and hSERT, respectively) as described earlier. Cell lines were maintained in culture in humidified atmosphere (37 °C, 5% CO2), and passaged when reached 80–90% confluency. Cells expressing the desired transporter were seeded the day before the experiment (40,000 cells per well) or two days before the experiments (20,000 cells per well) onto poly-D-lysine (PDL)-coated 96-well plates.
# (§2) Uptake inhibition experiments were carried out as reported previously. Ninety-six-well plates containing hDAT-, hNET- or hSERT-expressing cells were washed with Krebs-HEPES buffer (KHB; 25 mM HEPES, 120 mM NaCl, 5 mM KCl, 1.2 mM CaCl2, and 1.2 mM MgSO4 and 5 mM D-glucose, pH = 7.3). Cells were then preincubated with increasing concentrations of the compound diluted in KHB for 6 min. Following the pre-incubation of the cells with the compound, the tritiated substrate (hDAT: 0.15 μM [^3H]DA; hNET: 0.05 μM [^3H]MPP^+; hSERT: 0.1 μM [^3H]5-HT) was added to the wells. The uptake was terminated by removal of tritiated substrate and by washing the cells with ice-cold KHB after 1 min (for hDAT and hSERT) or 3 min (for hNET). Thereafter, 200 μL of Ultima Gold^TM XR scintillation cocktail (PerkinElmer, MA, USA) was added, the plates were shaken and the radioactivity accumulated into the cells determined in a Wal-lac 1450 MicroBeta TriLux Liquid Scintillation Counter & Lumi (GMI, Ramsey, MN, USA). Non- specific tritiated substrate uptake was measured in the presence of 100 μM cocaine (for hDAT and hNET) or 10 μM paroxetine (for hSERT), and subtracted from the data. Uptake in the presence of test drugs was normalized to the uptake in the presence of the vehicle.
# hDAT = target: T2, hDAT (Homo sapiens, UniProt Q01959); experiment: Uptake inhibition assay in HEK293 cells expressing hDAT; format: cell-based
# T2 construct: expressed in transfected cells
# Protocol: as §1, §2
# [1] = tested on: naive young (12 weeks) male rats; experiment: Open field, spontaneous locomotor activity; format: in vivo, rat
# Protocol: Animals were habituated to the experimental room twenty-four hours prior to the start of the experiment. The open field consisted of a black wooden board (1.20 m × 1.20 m) surrounded by white wooden walls (50 cm in height); light was adjusted to 150 lux. Each animal was placed in the middle of the open-field arena (animal experiments conducted under BMBWF-66.009/235/V/3b/2018 regulations) and behavior was recorded for 10 min. Data analysis was performed using the AnyMaze software (Stoelting Co., IL, USA). The test consisted of one habituation session on the first day and one test session on the following day. Each animal received (S)-MK-26 at 10, 20, 0 and 1 mg/kg of body weight with wash-out period of nine days between each treatment.
# T2 sequence (Q01959 whole entry): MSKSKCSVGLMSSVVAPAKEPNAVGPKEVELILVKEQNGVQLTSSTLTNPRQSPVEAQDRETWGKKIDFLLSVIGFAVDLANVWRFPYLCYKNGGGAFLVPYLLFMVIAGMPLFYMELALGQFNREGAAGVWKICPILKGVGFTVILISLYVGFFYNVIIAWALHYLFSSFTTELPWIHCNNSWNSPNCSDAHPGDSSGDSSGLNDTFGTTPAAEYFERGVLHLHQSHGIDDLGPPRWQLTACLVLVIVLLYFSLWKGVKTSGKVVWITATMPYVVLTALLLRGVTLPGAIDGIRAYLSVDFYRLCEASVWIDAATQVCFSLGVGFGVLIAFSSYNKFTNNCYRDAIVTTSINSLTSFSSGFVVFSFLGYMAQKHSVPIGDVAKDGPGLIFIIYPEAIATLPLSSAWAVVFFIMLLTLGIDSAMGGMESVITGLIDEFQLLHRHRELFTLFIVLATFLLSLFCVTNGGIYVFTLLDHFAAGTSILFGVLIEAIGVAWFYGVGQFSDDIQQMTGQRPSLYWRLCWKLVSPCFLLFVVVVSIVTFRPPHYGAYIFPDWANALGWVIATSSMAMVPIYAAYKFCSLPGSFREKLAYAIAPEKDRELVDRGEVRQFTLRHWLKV
# T1 sequence (P23975 whole entry): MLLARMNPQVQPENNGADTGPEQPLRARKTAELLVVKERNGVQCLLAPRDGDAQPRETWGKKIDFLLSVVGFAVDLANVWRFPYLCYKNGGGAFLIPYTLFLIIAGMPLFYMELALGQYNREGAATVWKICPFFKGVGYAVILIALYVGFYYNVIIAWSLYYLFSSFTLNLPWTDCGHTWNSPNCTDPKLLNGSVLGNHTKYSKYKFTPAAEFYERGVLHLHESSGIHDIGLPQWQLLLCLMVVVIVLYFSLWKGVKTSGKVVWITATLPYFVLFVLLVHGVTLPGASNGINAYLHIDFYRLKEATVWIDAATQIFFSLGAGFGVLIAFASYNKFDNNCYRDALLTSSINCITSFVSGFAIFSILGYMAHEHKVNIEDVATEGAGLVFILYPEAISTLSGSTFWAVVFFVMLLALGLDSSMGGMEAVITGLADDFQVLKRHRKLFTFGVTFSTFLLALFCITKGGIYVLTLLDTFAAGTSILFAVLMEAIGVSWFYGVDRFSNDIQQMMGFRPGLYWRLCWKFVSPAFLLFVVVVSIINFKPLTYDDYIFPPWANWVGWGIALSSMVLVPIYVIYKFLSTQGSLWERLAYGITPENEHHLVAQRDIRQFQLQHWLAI
smiles,measurement,setting,value
"[O-][S@@+](Cc1cncs1)C(c1cccc(Cl)c1)c1cccc(Cl)c1 [(S)-MK-26, (S)-5-(((B(3-chlorophenyl)methyl)sulphinyl)methyl)thiazole]",pIC50,hNET,4.20
same,pIC50,hDAT,6.25
same,fold lower hDAT IC50 compared to (R)-MK-26,"hDAT; uptake inhibition, HEK293",approximately 65 fold
same,fold lower hDAT IC50 compared to (R)-Modafinil,"hDAT; uptake inhibition, HEK293",10 fold
same,effect on total distance travelled over 10 min,"[1]; 1, 10, 20 mg/kg vs vehicle",no effect
same,activity (distance travelled) within the initial 5 min of the test session,"[1]; highest dose (20 mg/kg), p = 0.0236",moderately increased activity
same,stereotypic or anxiogenic behavior,"[1]; open field, 1, 10, 20 mg/kg",did not induce stereotypic or anxiogenic behavior
